We go through 1 compound from patent US20110281901A1, “PHARMACEUTICAL COMPOSITIONS AND METHODS OF MAKING SAME” (GLAXO WELLCOME MANUFACTURING PTE LTD., priority 2010, published 2011).

For orientation: solubility means the concentration that dissolves in the medium under given conditions.

In brackets after ≈: the same amount, converted by molar mass.

Series [1] is described as follows: physchem. As to conditions: phosphate buffer, 25 °C, pH 5, aqueous buffer.
Series [2] can be described thus: Solubility of pazopanib free base in phosphate buffer. As to conditions: 25° C., pH 3.5.

With `Cc1ccc(Nc2nccc(N(C)c3ccc4c(C)n(C)nc4c3)n2)cc1S(N)(=O)=O` [pazopanib free base, 5-[[4-[(2,3-dimethyl-2H-indazol-6-yl)methylamino]-2-pyrimidinyl]amino]-2-methylbenzenesulfonamide], the solubility in series [1] is roughly 6 ng/mL (≈ 0.0137 µM). This compound also showed an approximate solubility in series [2] of roughly 20000 ng/mL.
